Measurements: US10844077B2, “Thiazolyl-containing compounds for treating proliferative diseases” (Dana-Farber Cancer Institute, Inc., priority 2014, dated 2020)

Tests used:
Format in all cases: binding
broad panel of kinases [1] = biological target: broad panel of kinases (Homo sapiens, UniProt Q8N752); settings: CSNK1A1L; 1 μM
broad panel of kinases [2] = biological target: broad panel of kinases (Homo sapiens, UniProt P54646); settings: AMPK-alpha2; 1 μM
broad panel of kinases [3] = biological target: broad panel of kinases (Plasmodium falciparum, UniProt P62344)
Chain of broad panel of kinases (Plasmodium falciparum, UniProt P62344) (P62344 2-524 limits assumed): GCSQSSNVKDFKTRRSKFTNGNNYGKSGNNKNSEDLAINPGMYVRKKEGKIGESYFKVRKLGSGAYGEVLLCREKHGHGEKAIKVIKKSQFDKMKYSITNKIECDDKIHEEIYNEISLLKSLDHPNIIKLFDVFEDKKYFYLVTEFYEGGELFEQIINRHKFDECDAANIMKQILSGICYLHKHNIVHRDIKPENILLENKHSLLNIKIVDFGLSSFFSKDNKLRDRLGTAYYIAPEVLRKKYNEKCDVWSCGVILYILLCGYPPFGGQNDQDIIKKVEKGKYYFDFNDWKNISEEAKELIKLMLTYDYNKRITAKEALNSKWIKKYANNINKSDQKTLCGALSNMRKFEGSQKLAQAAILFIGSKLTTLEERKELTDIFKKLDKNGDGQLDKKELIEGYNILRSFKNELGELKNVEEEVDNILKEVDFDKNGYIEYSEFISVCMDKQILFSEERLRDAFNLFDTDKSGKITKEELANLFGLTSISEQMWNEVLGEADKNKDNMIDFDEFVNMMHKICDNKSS

broad panel of kinases [4] = biological target: broad panel of kinases (Homo sapiens, UniProt Q86V86); settings: PIM3; 1 μM
broad panel of kinases [5] = biological target: broad panel of kinases (Homo sapiens, UniProt Q96D53); settings: ADCK4; 1 μM
broad panel of kinases [6] = biological target: broad panel of kinases (Homo sapiens, UniProt P30530); settings: AXL; 1 μM
broad panel of kinases [7] = biological target: broad panel of kinases (Homo sapiens, UniProt Q8TDX7); settings: NEK7; 1 μM
broad panel of kinases [8] = biological target: broad panel of kinases (Homo sapiens, UniProt Q13873); settings: BMPR2; 1 μM
Chain of broad panel of kinases (Homo sapiens, UniProt Q13873) (Q13873 27-1038 limits assumed): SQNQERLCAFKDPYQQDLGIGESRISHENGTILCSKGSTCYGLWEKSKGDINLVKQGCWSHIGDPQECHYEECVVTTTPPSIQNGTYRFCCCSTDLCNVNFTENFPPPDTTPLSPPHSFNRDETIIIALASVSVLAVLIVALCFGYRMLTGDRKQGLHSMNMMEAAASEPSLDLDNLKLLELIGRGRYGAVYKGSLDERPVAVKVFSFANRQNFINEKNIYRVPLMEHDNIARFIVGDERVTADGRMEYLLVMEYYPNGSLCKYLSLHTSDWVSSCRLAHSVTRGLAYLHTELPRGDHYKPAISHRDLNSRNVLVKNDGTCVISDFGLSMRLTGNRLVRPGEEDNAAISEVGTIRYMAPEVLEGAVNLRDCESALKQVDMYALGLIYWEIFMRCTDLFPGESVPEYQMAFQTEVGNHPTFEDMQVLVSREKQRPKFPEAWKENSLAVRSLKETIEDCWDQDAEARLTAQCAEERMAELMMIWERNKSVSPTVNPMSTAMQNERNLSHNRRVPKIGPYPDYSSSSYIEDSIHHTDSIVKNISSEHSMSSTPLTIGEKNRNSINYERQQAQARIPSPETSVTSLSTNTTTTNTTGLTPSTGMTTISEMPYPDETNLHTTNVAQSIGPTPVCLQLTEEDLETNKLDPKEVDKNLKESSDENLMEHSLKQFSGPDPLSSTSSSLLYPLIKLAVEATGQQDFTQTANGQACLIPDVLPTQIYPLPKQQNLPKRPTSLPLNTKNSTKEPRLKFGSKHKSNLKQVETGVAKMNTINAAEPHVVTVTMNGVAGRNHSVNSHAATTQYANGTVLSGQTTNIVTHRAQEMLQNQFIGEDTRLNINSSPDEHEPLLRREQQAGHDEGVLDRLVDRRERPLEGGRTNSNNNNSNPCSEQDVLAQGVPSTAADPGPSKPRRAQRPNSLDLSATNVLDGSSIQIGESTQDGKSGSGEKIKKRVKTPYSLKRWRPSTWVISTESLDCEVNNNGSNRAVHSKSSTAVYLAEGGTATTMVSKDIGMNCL

broad panel of kinases [9] = biological target: broad panel of kinases (Homo sapiens, UniProt Q9H1R3); settings: MYLK2; 1 μM
broad panel of kinases [10] = biological target: broad panel of kinases (Homo sapiens, UniProt Q9NRH2); settings: SNRK; 1 μM
broad panel of kinases [11] = biological target: broad panel of kinases (Homo sapiens, UniProt P54753); settings: EPHB3; 1 μM
broad panel of kinases [12] = biological target: broad panel of kinases (Homo sapiens, UniProt Q6PHR2); settings: ULK3; 1 μM
broad panel of kinases [13] = biological target: broad panel of kinases (Homo sapiens, UniProt Q8TDR2); settings: STK35; 1 μM
broad panel of kinases [14] = biological target: broad panel of kinases (Homo sapiens, UniProt Q6ZWH5); settings: NEK10; 1 μM
broad panel of kinases [15] = biological target: broad panel of kinases (Homo sapiens, UniProt Q99683); settings: ASK1; 1 μM
broad panel of kinases [16] = biological target: broad panel of kinases (Homo sapiens, UniProt Q56UN5); settings: YSK4; 1 μM
broad panel of kinases [17] = biological target: broad panel of kinases (Homo sapiens, UniProt P10721, V559D/V654A); settings: KIT(V559D, V654A); 1 μM
broad panel of kinases [18] = biological target: broad panel of kinases (Homo sapiens, UniProt Q8TD19); settings: NEK9; 1 μM
broad panel of kinases [19] = biological target: broad panel of kinases (Homo sapiens, UniProt Q9UIK4); settings: DAPK2; 1 μM
broad panel of kinases [20] = biological target: broad panel of kinases (Homo sapiens, UniProt O14578); settings: CIT; 1 μM
broad panel of kinases [21] = biological target: broad panel of kinases (Homo sapiens, UniProt P45983); settings: JNK1; 1 μM
broad panel of kinases [22] = biological target: broad panel of kinases (Homo sapiens, UniProt Q16512); settings: PKN1; 1 μM
broad panel of kinases [23] = biological target: broad panel of kinases (Homo sapiens, UniProt P36888, D835Y); settings: FLT3(D835Y); 1 μM
broad panel of kinases [24] = biological target: broad panel of kinases (Homo sapiens, UniProt P42345); settings: MTOR; 1 μM
broad panel of kinases [25] = biological target: broad panel of kinases (Homo sapiens, UniProt Q13705); settings: ACVR2B; 1 μM
broad panel of kinases [26] = biological target: broad panel of kinases (Homo sapiens, UniProt Q15375); settings: EPHA7; 1 μM
broad panel of kinases [27] = biological target: broad panel of kinases (Homo sapiens, UniProt P00519, Y253F); settings: ABL1(Y253F)-phosphorylated; 1 μM
broad panel of kinases [28] = biological target: broad panel of kinases (Homo sapiens, UniProt Q13554); settings: CAMK2B; 1 μM
broad panel of kinases [29] = biological target: broad panel of kinases (Homo sapiens, UniProt P36894); settings: BMPR1A; 1 μM
broad panel of kinases [30] = biological target: broad panel of kinases (Homo sapiens, UniProt O15146); settings: MUSK; 1 μM
Chain of broad panel of kinases (Homo sapiens, UniProt O15146) (O15146 24-869 limits assumed): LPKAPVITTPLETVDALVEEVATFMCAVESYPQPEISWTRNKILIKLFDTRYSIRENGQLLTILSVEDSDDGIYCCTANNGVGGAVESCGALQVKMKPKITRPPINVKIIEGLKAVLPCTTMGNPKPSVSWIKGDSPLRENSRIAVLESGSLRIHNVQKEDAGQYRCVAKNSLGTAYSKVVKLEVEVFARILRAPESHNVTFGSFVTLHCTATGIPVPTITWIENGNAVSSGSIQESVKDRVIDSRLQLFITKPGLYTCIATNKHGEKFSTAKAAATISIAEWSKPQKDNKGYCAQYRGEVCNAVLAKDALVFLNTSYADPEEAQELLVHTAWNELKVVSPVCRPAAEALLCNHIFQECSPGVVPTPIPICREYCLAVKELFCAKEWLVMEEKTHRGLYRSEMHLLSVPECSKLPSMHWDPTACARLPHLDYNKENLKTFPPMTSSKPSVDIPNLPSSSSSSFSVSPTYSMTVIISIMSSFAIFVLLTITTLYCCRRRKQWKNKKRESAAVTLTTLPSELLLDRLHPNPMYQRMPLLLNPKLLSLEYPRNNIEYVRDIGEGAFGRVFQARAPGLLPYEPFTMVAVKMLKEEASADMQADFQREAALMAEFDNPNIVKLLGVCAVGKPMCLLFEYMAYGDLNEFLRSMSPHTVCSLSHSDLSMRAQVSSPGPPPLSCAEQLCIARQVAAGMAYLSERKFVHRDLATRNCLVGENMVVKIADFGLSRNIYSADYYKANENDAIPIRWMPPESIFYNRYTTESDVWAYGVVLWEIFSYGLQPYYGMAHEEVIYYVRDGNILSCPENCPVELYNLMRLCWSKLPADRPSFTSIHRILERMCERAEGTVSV

broad panel of kinases [31] = biological target: broad panel of kinases (Homo sapiens, UniProt O75716); settings: STK16; 1 μM
Chain of broad panel of kinases (Homo sapiens, UniProt O75716) (O75716 2-305 limits assumed): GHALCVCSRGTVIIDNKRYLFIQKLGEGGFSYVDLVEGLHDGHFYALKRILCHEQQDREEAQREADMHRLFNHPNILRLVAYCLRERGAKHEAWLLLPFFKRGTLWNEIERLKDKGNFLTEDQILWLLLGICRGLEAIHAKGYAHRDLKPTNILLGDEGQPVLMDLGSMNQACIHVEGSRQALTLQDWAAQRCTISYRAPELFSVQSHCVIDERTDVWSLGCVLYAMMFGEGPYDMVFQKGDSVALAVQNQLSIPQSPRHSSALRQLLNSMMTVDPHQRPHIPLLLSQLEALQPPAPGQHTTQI

broad panel of kinases [32] = biological target: broad panel of kinases (Homo sapiens, UniProt Q00535); settings: CDK5; 1 μM
broad panel of kinases [33] = biological target: broad panel of kinases (Homo sapiens, UniProt P00533, T790M); settings: EGFR(T790M); 1 μM
Chain of broad panel of kinases (Homo sapiens, UniProt P00533, T790M) (P00533 25-1210 T790M limits assumed): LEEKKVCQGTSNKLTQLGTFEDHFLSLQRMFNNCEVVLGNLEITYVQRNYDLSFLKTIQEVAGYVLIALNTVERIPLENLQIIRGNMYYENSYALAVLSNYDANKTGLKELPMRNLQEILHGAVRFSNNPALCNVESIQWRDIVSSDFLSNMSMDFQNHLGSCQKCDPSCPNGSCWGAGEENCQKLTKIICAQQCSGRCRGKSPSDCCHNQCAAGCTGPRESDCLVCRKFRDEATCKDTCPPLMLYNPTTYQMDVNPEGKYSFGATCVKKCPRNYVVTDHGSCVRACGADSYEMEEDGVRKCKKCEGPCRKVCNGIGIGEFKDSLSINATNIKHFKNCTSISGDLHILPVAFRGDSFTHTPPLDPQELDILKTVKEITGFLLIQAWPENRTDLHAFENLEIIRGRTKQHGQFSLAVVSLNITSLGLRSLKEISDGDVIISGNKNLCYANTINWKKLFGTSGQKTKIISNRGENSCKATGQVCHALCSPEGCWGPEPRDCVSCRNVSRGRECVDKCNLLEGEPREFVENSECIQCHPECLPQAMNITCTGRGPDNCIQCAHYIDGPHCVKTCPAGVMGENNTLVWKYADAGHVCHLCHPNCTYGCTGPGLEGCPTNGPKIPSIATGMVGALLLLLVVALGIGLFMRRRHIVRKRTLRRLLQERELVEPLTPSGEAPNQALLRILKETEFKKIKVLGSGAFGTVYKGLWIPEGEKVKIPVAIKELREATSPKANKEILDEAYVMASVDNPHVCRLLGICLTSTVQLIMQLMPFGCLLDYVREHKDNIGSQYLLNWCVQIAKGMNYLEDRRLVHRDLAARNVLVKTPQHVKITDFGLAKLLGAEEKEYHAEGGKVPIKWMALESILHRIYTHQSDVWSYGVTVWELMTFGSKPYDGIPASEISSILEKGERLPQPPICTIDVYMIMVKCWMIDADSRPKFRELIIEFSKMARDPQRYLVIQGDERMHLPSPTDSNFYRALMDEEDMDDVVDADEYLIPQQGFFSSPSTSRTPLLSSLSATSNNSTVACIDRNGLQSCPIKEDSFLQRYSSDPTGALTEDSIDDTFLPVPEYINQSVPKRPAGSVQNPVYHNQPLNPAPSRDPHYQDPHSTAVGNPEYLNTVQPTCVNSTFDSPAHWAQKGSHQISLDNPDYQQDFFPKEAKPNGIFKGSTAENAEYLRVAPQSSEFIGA

broad panel of kinases [34] = biological target: broad panel of kinases (Homo sapiens, UniProt Q9UEW8); settings: STK39; 1 μM
broad panel of kinases [35] = biological target: broad panel of kinases (Homo sapiens, UniProt P22694); settings: PKAC-beta; 1 μM
broad panel of kinases [36] = biological target: broad panel of kinases (Homo sapiens, UniProt Q9UL54); settings: TAOK2; 1 μM
broad panel of kinases [37] = biological target: broad panel of kinases (Homo sapiens, UniProt P04626); settings: ERBB2; 1 μM
Chain of broad panel of kinases (Homo sapiens, UniProt P04626) (P04626 23-1255 limits assumed): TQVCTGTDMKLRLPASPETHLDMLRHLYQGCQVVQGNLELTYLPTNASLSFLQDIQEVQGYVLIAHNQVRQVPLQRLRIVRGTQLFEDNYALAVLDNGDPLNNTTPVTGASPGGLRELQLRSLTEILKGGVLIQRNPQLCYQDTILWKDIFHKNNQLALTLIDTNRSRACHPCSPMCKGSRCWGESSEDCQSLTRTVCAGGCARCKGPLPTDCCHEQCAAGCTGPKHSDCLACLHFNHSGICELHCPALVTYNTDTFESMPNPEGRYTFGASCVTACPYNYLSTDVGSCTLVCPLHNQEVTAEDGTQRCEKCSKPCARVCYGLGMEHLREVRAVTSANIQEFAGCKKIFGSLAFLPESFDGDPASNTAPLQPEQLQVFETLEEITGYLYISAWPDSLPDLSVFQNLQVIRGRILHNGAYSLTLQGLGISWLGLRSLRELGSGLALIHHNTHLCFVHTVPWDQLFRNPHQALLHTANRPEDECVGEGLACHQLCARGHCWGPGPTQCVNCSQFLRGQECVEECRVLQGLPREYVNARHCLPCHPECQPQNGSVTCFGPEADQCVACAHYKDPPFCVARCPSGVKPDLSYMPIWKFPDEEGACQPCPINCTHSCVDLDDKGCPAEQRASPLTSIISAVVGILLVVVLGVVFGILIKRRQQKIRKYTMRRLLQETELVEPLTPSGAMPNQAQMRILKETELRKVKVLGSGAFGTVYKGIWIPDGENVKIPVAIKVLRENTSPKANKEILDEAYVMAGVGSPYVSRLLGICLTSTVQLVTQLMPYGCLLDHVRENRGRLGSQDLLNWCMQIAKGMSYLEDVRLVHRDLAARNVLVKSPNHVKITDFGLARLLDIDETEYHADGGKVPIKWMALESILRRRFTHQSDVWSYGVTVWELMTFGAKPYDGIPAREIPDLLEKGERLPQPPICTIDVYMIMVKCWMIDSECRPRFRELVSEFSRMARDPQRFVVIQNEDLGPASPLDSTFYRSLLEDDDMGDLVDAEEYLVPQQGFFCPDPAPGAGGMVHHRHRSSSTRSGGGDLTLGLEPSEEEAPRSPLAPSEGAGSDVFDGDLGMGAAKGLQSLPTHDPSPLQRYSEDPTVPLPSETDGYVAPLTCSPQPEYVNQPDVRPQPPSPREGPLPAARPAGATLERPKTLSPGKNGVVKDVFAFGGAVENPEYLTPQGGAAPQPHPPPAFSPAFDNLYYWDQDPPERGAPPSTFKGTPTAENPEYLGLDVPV

Structure (SMILES): C=CC(=O)N1CC[C@H](Nc2nc(CN3CCOCC3)cc(Nc3ncc(C(=O)Nc4c(C)cccc4C)s3)n2)C1 [Example I-2]
- percent of control binding remaining (lower = stronger binding) (broad panel of kinases [1]): 100%
- percent of control binding remaining (lower = stronger binding) (broad panel of kinases [2]): 92%
- % change compared to control (broad panel of kinases [3]): 24%
- percent of control binding remaining (lower = stronger binding) (broad panel of kinases [4]): 97%
- percent of control binding remaining (lower = stronger binding) (broad panel of kinases [5]): 95%
- percent of control binding remaining (lower = stronger binding) (broad panel of kinases [6]): 96%
- percent of control binding remaining (lower = stronger binding) (broad panel of kinases [7]): 100%
- percent of control binding remaining (lower = stronger binding) (broad panel of kinases [8]): 100%
- percent of control binding remaining (lower = stronger binding) (broad panel of kinases [9]): 100%
- percent of control binding remaining (lower = stronger binding) (broad panel of kinases [10]): 100%
- percent of control binding remaining (lower = stronger binding) (broad panel of kinases [11]): 0%
- percent of control binding remaining (lower = stronger binding) (broad panel of kinases [12]): 97%
- percent of control binding remaining (lower = stronger binding) (broad panel of kinases [13]): 99%
- percent of control binding remaining (lower = stronger binding) (broad panel of kinases [14]): 93%
- percent of control binding remaining (lower = stronger binding) (broad panel of kinases [15]): 96%
- percent of control binding remaining (lower = stronger binding) (broad panel of kinases [16]): 100%
- percent of control binding remaining (lower = stronger binding) (broad panel of kinases [17]): 7.2%
- percent of control binding remaining (lower = stronger binding) (broad panel of kinases [18]): 100%
- percent of control binding remaining (lower = stronger binding) (broad panel of kinases [19]): 86%
- percent of control binding remaining (lower = stronger binding) (broad panel of kinases [20]): 100%
- percent of control binding remaining (lower = stronger binding) (broad panel of kinases [21]): 94%
- percent of control binding remaining (lower = stronger binding) (broad panel of kinases [22]): 100%
- percent of control binding remaining (lower = stronger binding) (broad panel of kinases [23]): 97%
- percent of control binding remaining (lower = stronger binding) (broad panel of kinases [24]): 100%
- percent of control binding remaining (lower = stronger binding) (broad panel of kinases [25]): 78%
- percent of control binding remaining (lower = stronger binding) (broad panel of kinases [26]): 100%
- percent of control binding remaining (lower = stronger binding) (broad panel of kinases [27]): 0.1%
- percent of control binding remaining (lower = stronger binding) (broad panel of kinases [28]): 84%
- percent of control binding remaining (lower = stronger binding) (broad panel of kinases [29]): 100%
- percent of control binding remaining (lower = stronger binding) (broad panel of kinases [30]): 98%
- percent of control binding remaining (lower = stronger binding) (broad panel of kinases [31]): 99%
- percent of control binding remaining (lower = stronger binding) (broad panel of kinases [32]): 100%
- percent of control binding remaining (lower = stronger binding) (broad panel of kinases [33]): 48%
- percent of control binding remaining (lower = stronger binding) (broad panel of kinases [34]): 92%
- percent of control binding remaining (lower = stronger binding) (broad panel of kinases [35]): 92%
- percent of control binding remaining (lower = stronger binding) (broad panel of kinases [36]): 65%
- percent of control binding remaining (lower = stronger binding) (broad panel of kinases [37]): 7.5%

Structure (SMILES): C=CC(=O)N1CC[C@H](Nc2nccc(Nc3ncc(C(=O)Nc4c(C)cccc4C)s3)n2)C1 [Example I-3]
- percent of control binding remaining (lower = stronger binding) (broad panel of kinases [1]): 95%
- percent of control binding remaining (lower = stronger binding) (broad panel of kinases [2]): 78%
- % change compared to control (broad panel of kinases [3]): 8.1%
- percent of control binding remaining (lower = stronger binding) (broad panel of kinases [4]): 89%
- percent of control binding remaining (lower = stronger binding) (broad panel of kinases [5]): 92%
- % change compared to control (broad panel of kinases [6]): 76%
- percent of control binding remaining (lower = stronger binding) (broad panel of kinases [7]): 98%
- percent of control binding remaining (lower = stronger binding) (broad panel of kinases [8]): 100%
- percent of control binding remaining (lower = stronger binding) (broad panel of kinases [9]): 100%
- percent of control binding remaining (lower = stronger binding) (broad panel of kinases [10]): 92%
- percent of control binding remaining (lower = stronger binding) (broad panel of kinases [11]): 0%
- percent of control binding remaining (lower = stronger binding) (broad panel of kinases [12]): 98%
- percent of control binding remaining (lower = stronger binding) (broad panel of kinases [13]): 100%
- percent of control binding remaining (lower = stronger binding) (broad panel of kinases [14]): 90%
- percent of control binding remaining (lower = stronger binding) (broad panel of kinases [15]): 91%
- percent of control binding remaining (lower = stronger binding) (broad panel of kinases [16]): 100%
- percent of control binding remaining (lower = stronger binding) (broad panel of kinases [17]): 25%
- percent of control binding remaining (lower = stronger binding) (broad panel of kinases [18]): 100%
- percent of control binding remaining (lower = stronger binding) (broad panel of kinases [19]): 80%
- percent of control binding remaining (lower = stronger binding) (broad panel of kinases [20]): 88%
- percent of control binding remaining (lower = stronger binding) (broad panel of kinases [21]): 81%
- percent of control binding remaining (lower = stronger binding) (broad panel of kinases [22]): 81%
- percent of control binding remaining (lower = stronger binding) (broad panel of kinases [23]): 100%
- percent of control binding remaining (lower = stronger binding) (broad panel of kinases [24]): 100%
- percent of control binding remaining (lower = stronger binding) (broad panel of kinases [25]): 95%
- percent of control binding remaining (lower = stronger binding) (broad panel of kinases [26]): 100%
- % change compared to control (broad panel of kinases [27]): 0.1%
- percent of control binding remaining (lower = stronger binding) (broad panel of kinases [28]): 81%
- percent of control binding remaining (lower = stronger binding) (broad panel of kinases [29]): 92%
- percent of control binding remaining (lower = stronger binding) (broad panel of kinases [30]): 100%
- percent of control binding remaining (lower = stronger binding) (broad panel of kinases [31]): 89%
- percent of control binding remaining (lower = stronger binding) (broad panel of kinases [32]): 100%
- percent of control binding remaining (lower = stronger binding) (broad panel of kinases [33]): 56%
- percent of control binding remaining (lower = stronger binding) (broad panel of kinases [34]): 71%
- percent of control binding remaining (lower = stronger binding) (broad panel of kinases [35]): 100%
- percent of control binding remaining (lower = stronger binding) (broad panel of kinases [36]): 67%
- percent of control binding remaining (lower = stronger binding) (broad panel of kinases [37]): 0.8%
